Source: ChEMBL document CHEMBL1201862, “PubChem BioAssay data set” (2004)
The source made the active and inactive calls.

Tests used:
[1] = target: DNA (cytosine-5)-methyltransferase 1 (Homo sapiens, UniProt P26358); assay: inhibition of DNA methylation by DNMT1 – biochemical, fluorescent molecular beacon, confirmation (AID 602386); assay type: functional
[2] = tested on: Streptococcus; assay: GAS UMAA2166 growth inhibition – luminescence, BacTiterGlo, counter-screen for streptokinase expression inhibitor project, dose response (AID 1915); assay type: functional, organism-based;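 further: potency for reduction of bacterial viability or growth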
[3] = tested on: Streptococcus sp. 'group A'; assay: Streptococcus pyogenes SK(-)GAS viability under kanamycin – luminescence, BacTiterGlo, confirmation, counter-screen for streptokinase expression inhibitor project, dose response (AID 1900); assay type: functional, organism-based
[4] = target: T1, Streptokinase A (Streptococcus pyogenes serotype M1, UniProt P10520); assay: viability-normalized secreted streptokinase activity reduction – plasminogen activation absorbance, OD405, dose response (AID 1914); assay type: functional, Streptococcus pyogenes M1 GAS;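 further: secreted streptokinase activity via plasminogen activation per viability signal from cell pellet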
T1 sequence (P10520 whole entry): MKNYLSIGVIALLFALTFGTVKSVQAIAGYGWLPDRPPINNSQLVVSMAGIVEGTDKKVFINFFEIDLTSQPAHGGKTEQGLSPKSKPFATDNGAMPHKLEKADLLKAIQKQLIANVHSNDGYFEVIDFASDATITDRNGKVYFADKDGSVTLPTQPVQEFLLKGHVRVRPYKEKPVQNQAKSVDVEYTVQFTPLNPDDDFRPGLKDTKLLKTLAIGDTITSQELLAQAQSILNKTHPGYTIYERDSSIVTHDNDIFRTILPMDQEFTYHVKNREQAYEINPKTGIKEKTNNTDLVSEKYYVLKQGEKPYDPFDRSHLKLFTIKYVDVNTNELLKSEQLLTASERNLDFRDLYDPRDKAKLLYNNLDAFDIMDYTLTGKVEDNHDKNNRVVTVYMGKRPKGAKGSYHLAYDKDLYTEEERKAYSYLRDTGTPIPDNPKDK

[5] = target: Adenosylmethionine-8-amino-7-oxononanoate aminotransferase (Mycobacterium tuberculosis, UniProt P9WQ81); assay: Mycobacterium tuberculosis BioA enzyme inhibitor Measured in Biochemical System Using Plate Reader - 2163-02_Inhibitor_Dose_CherryPick_Activity.; assay type: functional, Mycobacterium tuberculosis UT205
[6] = target: T2, Carboxy-terminal domain RNA polymerase II polypeptide A small phosphatase 1 (Homo sapiens, UniProt Q9GZU7); assay: CTDSP1 inhibitors, concentration-response, biochemical, absorbance readout, ultra-high-throughput screen actives (AID 540297); assay type: functional
T2 sequence (Q9GZU7 whole entry): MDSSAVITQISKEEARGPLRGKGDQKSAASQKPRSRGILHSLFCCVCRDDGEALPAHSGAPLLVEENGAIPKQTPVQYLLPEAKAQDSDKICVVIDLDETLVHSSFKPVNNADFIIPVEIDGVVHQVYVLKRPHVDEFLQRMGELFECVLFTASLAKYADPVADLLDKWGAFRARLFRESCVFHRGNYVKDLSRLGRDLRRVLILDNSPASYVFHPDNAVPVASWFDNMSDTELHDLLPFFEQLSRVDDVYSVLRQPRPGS

[7] = target: Low molecular weight phosphotyrosine protein phosphatase (Homo sapiens, UniProt P24666); assay type: functional; conditions: read-out: IC50_Mean;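 further: Dose-response confirmation assay measuring inhibition of LMPTP enzyme activity by fluorescence intensity read-out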
[8] = target: T3, Tyrosine-protein phosphatase non-receptor type 22 (Homo sapiens, UniProt Q9Y2R2); assay: PTPN22 enzyme inhibitors – biochemical, fluorescence, LYP catalytic domain, selectivity assay for LMPTP inhibitor project, dose response (AID 652006); assay type: functional; conditions: read-out: IC50_Mean
T3 sequence (Q9Y2R2 whole entry): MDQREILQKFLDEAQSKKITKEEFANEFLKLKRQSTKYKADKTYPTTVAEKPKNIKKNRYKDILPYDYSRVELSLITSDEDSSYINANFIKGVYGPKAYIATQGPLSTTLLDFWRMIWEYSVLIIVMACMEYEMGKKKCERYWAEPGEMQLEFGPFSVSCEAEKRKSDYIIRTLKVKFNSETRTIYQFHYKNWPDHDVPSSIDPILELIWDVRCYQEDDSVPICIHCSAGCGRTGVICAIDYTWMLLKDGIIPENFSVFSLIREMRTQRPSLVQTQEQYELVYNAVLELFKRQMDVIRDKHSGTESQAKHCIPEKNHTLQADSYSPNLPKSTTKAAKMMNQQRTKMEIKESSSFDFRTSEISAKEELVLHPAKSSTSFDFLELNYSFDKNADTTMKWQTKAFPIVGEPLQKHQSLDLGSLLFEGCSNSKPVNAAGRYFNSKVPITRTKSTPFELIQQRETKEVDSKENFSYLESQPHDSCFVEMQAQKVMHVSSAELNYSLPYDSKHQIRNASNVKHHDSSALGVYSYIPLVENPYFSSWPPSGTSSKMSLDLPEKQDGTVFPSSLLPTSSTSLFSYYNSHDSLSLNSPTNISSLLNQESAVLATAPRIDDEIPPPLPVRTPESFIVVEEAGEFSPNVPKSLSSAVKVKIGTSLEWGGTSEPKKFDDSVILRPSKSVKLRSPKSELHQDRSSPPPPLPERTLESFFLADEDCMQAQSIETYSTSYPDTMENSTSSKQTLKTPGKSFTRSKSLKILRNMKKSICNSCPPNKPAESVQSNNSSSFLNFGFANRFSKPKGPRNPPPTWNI

[9] = target: T4, Sentrin-specific protease 8 (Homo sapiens, UniProt Q96LD8); assay type: functional;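 further: luminescence read-out of SENP8 inhibition, dose-response confirmation following an ultra-high-throughput screen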
T4 sequence (Q96LD8 whole entry): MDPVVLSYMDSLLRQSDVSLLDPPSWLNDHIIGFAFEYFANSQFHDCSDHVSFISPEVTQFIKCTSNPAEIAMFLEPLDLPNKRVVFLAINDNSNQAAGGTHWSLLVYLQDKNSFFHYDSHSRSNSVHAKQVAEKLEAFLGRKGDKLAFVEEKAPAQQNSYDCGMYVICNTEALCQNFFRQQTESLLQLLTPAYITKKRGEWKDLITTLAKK

[10] = target: T5, Sentrin-specific protease 7 (Homo sapiens, UniProt Q9BQF6); assay type: functional;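 further: Luminescence-based dose-response confirmation of ultra-high-throughput screening hits, measuring inhibition of SENP7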
T5 sequence (Q9BQF6 whole entry): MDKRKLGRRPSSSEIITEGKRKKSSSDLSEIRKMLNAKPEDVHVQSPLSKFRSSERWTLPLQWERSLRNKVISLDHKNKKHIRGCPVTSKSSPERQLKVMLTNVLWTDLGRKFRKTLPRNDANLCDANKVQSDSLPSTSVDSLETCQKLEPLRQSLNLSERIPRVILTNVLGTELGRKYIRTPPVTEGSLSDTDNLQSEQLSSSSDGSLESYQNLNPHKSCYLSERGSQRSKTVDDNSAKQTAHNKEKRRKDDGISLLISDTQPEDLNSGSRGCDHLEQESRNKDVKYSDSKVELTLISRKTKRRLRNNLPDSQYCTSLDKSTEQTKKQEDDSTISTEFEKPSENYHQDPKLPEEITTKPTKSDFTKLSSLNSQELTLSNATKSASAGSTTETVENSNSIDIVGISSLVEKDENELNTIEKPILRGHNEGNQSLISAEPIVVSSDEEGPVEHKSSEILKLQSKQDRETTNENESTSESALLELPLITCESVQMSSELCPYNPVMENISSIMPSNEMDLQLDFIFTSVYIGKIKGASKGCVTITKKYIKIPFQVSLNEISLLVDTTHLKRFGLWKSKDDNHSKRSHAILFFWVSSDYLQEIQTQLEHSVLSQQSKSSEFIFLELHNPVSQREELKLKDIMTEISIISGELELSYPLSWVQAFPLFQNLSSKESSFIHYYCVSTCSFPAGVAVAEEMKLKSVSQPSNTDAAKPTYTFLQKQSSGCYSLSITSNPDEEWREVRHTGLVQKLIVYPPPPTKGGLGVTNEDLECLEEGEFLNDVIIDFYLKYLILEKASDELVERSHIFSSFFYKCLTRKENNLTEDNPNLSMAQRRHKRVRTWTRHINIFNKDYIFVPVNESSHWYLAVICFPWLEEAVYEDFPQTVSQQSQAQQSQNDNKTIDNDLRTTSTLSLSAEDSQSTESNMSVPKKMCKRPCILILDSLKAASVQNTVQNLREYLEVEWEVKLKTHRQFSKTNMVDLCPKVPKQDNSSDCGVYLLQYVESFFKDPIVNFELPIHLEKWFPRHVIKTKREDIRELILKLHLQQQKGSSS

[11] = target: T6, Caspase-3 (Homo sapiens, UniProt P42574); assay type: functional;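 further: Dose-response selectivity test against caspase-3 for candidate inhibitors of sentrin-specific proteases (SENPs)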
T6 sequence (P42574 whole entry): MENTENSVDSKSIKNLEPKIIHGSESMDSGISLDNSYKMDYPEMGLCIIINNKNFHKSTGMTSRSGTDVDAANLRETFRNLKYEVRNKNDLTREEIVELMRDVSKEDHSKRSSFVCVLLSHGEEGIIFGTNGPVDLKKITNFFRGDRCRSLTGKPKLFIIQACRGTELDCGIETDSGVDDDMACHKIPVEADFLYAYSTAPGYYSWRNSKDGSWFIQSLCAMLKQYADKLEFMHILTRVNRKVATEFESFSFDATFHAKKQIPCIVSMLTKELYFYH

[12] = target: T7, Sentrin-specific protease 6 (Homo sapiens, UniProt Q9GZR1); assay type: functional;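 further: Luminescence-based dose-response confirmatory assay of SENP6 inhibition, following up an ultra-high-throughput screen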
T7 sequence (Q9GZR1 whole entry): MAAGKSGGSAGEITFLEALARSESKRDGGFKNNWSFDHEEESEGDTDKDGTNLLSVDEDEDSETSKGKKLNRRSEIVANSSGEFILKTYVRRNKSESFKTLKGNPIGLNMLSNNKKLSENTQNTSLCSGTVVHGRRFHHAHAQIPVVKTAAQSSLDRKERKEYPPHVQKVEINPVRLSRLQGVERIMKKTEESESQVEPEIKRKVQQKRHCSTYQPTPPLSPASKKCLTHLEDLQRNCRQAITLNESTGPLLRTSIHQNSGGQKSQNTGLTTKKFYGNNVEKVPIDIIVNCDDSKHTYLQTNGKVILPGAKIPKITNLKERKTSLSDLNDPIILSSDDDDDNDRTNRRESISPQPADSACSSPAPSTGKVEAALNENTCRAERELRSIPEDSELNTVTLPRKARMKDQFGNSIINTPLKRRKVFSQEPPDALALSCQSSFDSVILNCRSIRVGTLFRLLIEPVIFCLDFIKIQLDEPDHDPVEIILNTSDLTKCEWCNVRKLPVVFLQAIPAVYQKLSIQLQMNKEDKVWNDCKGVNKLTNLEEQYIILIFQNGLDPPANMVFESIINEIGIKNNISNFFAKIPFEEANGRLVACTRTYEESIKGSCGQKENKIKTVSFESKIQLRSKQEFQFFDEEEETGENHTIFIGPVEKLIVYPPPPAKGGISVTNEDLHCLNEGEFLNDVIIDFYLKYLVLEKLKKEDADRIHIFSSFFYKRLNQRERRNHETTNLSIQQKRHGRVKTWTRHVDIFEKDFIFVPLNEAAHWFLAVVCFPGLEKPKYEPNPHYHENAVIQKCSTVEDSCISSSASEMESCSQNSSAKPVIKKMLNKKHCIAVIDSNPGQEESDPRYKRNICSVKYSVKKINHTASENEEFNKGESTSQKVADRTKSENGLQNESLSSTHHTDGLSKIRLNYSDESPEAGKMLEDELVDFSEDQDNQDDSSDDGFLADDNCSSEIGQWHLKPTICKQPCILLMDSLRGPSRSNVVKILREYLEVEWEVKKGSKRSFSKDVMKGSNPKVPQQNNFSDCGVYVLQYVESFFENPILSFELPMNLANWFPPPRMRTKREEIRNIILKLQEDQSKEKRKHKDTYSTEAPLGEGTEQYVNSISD

[13] = target: Mitochondrial peptide methionine sulfoxide reductase (Bos taurus, UniProt P54149); assay: Absorbance-based biochemical high throughput dose response assay for activators of Methionine sulfoxide reductase A (MsrA).; assay type: functional
[14] = target: T8, Neuropeptides B/W receptor type 1 (Homo sapiens, UniProt P48145); assay: human NPBW1 receptor blockade, IC50 – cell-based, fluorescence, dose response, set 6, late-stage follow-up (AID 588583); assay type: functional
T8 sequence (P48145 whole entry): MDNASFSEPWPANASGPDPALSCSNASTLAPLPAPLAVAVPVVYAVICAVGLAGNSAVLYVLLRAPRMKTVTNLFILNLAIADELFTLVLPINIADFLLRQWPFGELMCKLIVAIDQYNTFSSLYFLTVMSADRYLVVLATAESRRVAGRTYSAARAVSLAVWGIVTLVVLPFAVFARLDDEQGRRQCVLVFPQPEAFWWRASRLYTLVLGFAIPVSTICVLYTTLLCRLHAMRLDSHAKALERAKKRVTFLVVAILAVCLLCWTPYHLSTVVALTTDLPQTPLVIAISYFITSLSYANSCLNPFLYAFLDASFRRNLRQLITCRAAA

[15] = target: Melanin-concentrating hormone receptor 1 (Homo sapiens, UniProt Q99705); assay: Late-stage fluorescence-based counterscreen for antagonists of the G-protein coupled receptor 7 (GPR7): cell-based dose response assay to identify antagonists of the melanin-concentrating hormone receptor 1 (MCHR1) Set 6.; assay type: functional
[16] = bead-based luminescence quenchers, dual-tagged ARNT – biochemical, AlphaScreen, cherry-pick, artefact control for ARNT-TACC3 interaction inhibitor project, dose response (AID 651705); assay type: functional;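 further: AlphaScreen bead proximity signal that flags compounds interfering with the detection technology; potency reflects signal decrease which marks the compound as an assay artifact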
[17] = mammalian cell viability loss – Alamar Blue, dry powder, cytotoxicity control for antifungal single agent project, dose response (AID 602188); assay type: functional, cell-based

Sequence of Melanin-concentrating hormone receptor 1 (Q99705 whole entry): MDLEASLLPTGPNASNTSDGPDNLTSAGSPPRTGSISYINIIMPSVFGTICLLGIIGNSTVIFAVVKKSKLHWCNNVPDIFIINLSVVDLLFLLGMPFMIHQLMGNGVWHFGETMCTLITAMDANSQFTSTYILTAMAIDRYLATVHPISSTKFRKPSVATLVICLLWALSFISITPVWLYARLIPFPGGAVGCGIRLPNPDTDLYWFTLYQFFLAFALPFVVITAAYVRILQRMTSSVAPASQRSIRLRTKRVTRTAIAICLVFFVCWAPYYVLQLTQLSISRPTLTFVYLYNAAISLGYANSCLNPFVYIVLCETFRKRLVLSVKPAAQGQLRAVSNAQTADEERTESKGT
Sequence of DNA (cytosine-5)-methyltransferase 1 (P26358 whole entry): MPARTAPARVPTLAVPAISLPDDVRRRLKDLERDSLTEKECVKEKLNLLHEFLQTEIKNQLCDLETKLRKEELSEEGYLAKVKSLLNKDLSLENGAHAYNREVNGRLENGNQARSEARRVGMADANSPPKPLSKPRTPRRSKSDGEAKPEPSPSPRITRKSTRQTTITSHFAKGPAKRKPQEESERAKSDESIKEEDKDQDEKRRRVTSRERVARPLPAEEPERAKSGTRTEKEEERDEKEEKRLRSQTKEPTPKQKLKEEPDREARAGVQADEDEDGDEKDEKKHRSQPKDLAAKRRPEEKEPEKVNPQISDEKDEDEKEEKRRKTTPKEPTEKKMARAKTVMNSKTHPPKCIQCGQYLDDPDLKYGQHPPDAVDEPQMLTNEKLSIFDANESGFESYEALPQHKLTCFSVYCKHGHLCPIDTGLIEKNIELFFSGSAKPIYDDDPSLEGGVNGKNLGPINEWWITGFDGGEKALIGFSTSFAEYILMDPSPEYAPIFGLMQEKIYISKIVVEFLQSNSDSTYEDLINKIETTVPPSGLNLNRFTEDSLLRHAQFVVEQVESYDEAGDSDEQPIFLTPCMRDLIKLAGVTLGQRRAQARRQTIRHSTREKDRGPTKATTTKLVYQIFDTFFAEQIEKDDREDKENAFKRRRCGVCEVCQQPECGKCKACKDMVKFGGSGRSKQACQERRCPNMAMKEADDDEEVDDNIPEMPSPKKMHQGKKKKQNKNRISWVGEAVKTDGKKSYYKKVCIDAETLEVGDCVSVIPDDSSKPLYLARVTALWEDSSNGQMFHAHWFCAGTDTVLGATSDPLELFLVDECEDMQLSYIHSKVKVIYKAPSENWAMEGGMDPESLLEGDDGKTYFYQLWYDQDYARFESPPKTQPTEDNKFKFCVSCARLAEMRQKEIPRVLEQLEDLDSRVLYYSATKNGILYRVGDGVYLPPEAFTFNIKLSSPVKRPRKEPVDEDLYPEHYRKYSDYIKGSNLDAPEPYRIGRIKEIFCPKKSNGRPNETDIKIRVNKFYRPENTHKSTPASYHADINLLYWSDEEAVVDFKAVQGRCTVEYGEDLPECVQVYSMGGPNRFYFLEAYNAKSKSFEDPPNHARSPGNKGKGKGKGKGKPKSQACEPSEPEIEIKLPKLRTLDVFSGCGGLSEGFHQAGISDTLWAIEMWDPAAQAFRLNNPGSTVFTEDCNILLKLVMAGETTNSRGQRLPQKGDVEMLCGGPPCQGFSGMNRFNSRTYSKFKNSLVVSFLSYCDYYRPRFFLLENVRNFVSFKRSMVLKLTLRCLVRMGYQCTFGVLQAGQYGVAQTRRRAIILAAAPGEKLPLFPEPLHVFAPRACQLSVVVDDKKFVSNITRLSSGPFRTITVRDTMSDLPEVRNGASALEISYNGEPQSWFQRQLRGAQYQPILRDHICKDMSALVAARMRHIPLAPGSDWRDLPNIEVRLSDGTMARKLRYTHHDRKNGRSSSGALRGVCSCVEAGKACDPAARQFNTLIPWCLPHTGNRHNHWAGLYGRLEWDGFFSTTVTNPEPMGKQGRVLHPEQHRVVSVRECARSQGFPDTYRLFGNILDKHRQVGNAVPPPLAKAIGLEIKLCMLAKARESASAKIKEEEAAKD
Sequence of Adenosylmethionine-8-amino-7-oxononanoate aminotransferase (P9WQ81 whole entry, the tested form may be a part): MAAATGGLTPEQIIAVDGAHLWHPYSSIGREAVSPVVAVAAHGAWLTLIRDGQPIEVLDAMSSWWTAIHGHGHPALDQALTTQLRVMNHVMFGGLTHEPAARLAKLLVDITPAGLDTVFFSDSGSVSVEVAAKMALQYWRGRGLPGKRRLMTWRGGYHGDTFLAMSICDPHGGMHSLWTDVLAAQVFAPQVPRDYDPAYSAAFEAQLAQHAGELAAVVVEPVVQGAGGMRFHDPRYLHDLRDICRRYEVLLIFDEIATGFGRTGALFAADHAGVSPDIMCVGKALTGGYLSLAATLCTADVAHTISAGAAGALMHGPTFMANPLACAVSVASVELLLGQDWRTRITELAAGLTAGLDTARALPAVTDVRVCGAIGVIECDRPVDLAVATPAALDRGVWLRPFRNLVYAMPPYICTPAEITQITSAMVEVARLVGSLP
Sequence of Mitochondrial peptide methionine sulfoxide reductase (P54149 whole entry): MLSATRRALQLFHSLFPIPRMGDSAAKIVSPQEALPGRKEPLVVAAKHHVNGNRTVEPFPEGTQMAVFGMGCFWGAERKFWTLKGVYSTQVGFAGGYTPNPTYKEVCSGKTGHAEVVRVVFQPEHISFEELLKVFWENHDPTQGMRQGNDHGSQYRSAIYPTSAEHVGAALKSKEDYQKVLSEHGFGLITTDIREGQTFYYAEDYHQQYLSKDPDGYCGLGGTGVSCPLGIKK
Sequence of Low molecular weight phosphotyrosine protein phosphatase (P24666 whole entry, the tested form may be a part): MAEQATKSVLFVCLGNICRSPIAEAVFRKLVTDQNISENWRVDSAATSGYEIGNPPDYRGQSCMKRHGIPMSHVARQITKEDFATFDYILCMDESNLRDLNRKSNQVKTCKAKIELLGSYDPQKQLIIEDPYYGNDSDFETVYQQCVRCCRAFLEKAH

O=C(O)C(c1ccccc1)N1C(=O)/C(=C\c2ccc(-c3ccc(Br)cc3)o2)SC1=S (centres undefined)
IC50 [1]: 4.08 µM (active)
EC50 [2]: 2.51 µM (active)
EC50 [3]: 1.81 µM (active)
EC50 [4]: 1.55 µM (active)

CCOc1ccc(C(=O)Nc2cc3c(cc2N2CCCC2)n(CC)c(=O)n3CC)cc1OCC
AC50 [5]: 6.03 µM (active)

NC(=O)Cc1ccc(C(=O)CSc2nnc(-c3ccncc3)n2C2CC2)s1
IC50 [6]: 4.44 µM (active)
IC50 [7]: 21 µM (inactive)
IC50 [8]: 55.6 µM (inactive)

O=C(COC(=O)c1ccc([N+](=O)[O-])s1)NCc1ccc(F)cc1
IC50 [9]: 3.72 µM (active)
IC50 [10]: 6.18 µM (active)
IC50 [11]: 9.32 µM (active)
IC50 [12]: 3.68 µM (active)
EC50 [13]: 27.2 µM (inactive)

Cc1ccc(C(C#N)c2c(Br)cnn(Cc3cccc4ccccc34)c2=O)cc1 (centres undefined)
IC50 [14]: 0.219 µM (active)
IC50 [15]: 0.219 µM (active)

COc1ccc(C(C#N)c2c(Br)cnn(Cc3cccc4ccccc34)c2=O)cc1 (centres undefined)
IC50 [14]: 0.131 µM (active)
IC50 [15]: 0.131 µM (active)

Oc1c(/C=N/CCCn2ccnc2)c(-c2ccccc2)nn1-c1nc2ccccc2s1
AC50 [16]: 99.5 µM (active)

Cc1ccc(C(=O)Nc2nc(-c3ccccn3)cs2)cc1
AC50 [17]: 9.7 µM (active)
